Assay results reported in US20240148769A1, “PHARMACEUTICAL COMPOSITION FOR PREVENTING OR TREATING CORONAVIRUS DISEASE 19, CONTAINING CARBOCYCLIC NUCLEOSIDE DERIVATIVE” (FUTURE MEDICINE CO., LTD., priority 2021, published 2024).
Read-outs that look alike come from different tables or passages of the source.

Legend:
[1] = in vitro; conditions: African green monkey
[2] = system: SARS-CoV-2; assay: microbe, parasite or virus in culture; assay type: cell-based; conditions: for inhibition at 10 µM: screening criterion for Positives, 10 μM (FIG. 8), read-out: ability to inhibit infection
[3] = Severe acute respiratory syndrome coronavirus 2, Vero cells, SARS-CoV-2 MOI 0.0125, 24 hours, derived through the DRC, duplicate, read-out: IC50
[4] = Severe acute respiratory syndrome coronavirus 2, Vero cells
[5] = Severe acute respiratory syndrome coronavirus 2, Vero, 24 h

Compound	CC50 [1] [µM]	IC50 [2, 3] [µM]	inhibition at 10 µM [2, 4] [%]	IC50 [2, 5] [µM]
Nc1ncnc2c1ncn2[C@H]1C(O)C(O)[C@@H](CO)[C@H]1F (stereo partly drawn) [Chemical Formula 1-1]	> 50	7.43	≥ 70	–
Nc1ncnc2c1ncn2[C@H]1C(O)C(O)[C@@H](CO)C1(F)F (stereo partly drawn) [Chemical Formula 1-2]	> 50	3.08	≥ 70	–
CNc1nc(-c2cccs2)nc2c1nc(C#Cc1ccccc1)n2[C@@H]1OCC(O)C1O (stereo partly drawn) [Chemical Formula 2]	> 50	7.22	≥ 70	–
CCN(CC)CCCC(C)Nc1ccnc2cc(Cl)ccc12 (stereo not drawn) [Chloroquine, chloroquine, reference compound]	> 150	–	–	9.71
Cc1cccc(C)c1OCC(=O)N[C@@H](Cc1ccccc1)[C@@H](O)C[C@H](Cc1ccccc1)NC(=O)[C@H](C(C)C)N1CCCNC1=O [Lopinavir, lopinavir, reference compound]	> 50	–	–	20.8
CCC(CC)COC(=O)[C@H](C)N[P@](=O)(OC[C@H]1O[C@@](C#N)(c2ccc3c(N)ncnn23)[C@H](O)[C@@H]1O)Oc1ccccc1 [Remdesivir, remdesivir, reference compound]	> 50	–	–	7.9
